Results from patent US5468772A, “Tripterinin compound and method” (Pharmagenesis, Inc., priority 1993, dated 1995).

Columns and labels:
[1] = tested on: human peripheral blood lymphocytes; test: Suppression of human PBL proliferation in vitro ([3H]thymidine incorporation), with or without anti-CD3 (X-35); type: cell-based
Procedure: One measure of immunosuppression is suppression of stimulated peripheral blood lymphocyte (PBL) proliferation in vitro. In the assay detailed in Example 3, PBLs were activated in vitro by addition of anti-CD3 monoclonal antibody (X-35 antibody). At the same time, purified tripterinin or vehicle (control) was added to each culture, at selected concentrations. After 72 hours incubation, tritiated thymidine was added to the culture medium, and thymidine incorporation into DNA was assayed, as a measure of DNA synthesis associated with cell proliferation.
The ability of tripterifordin to inhibit anti-CD3 stimulated PBL proliferation was assayed at concentrations of 0, 0.78, 3.13, and 12.5 μg/ml, with the results shown in FIG. 9.
Human peripheral blood lymphocytes were prepared using an established method (Boyum). Human blood buffy coat samples, approximately 25 ml/donor, were obtained from the Stanford University Medical Center Blood Bank. Using sterile technique, the buffy coat samples were gently resuspended in a total volume of 100 ml with the addition of calcium and magnesium free Hank's balanced salt solution (HBSS, obtained from Gibco) at room temperature. A volume of 25 ml of the cell suspension was then layered onto 15 ml of Ficoll-Pacque (Pharmacia LKB Biotechnology, Inc.) in a 50 ml conical centrifuge tube. Tubes were centrifuged in a Beckman GPR tabletop centrifuge (GH-3.7 Rotor) at 400×g for 30 minutes at 15° C.
Following centrifugation, the PBL suspensions at the interfaces were transferred to new 50 ml tubes using a transfer pipette, and the PBL samples were resuspended in a total volume of 45 ml HBSS and centrifuged at 354×g for 10 minutes at 15° C. Supernatants were discarded. PBL's were resuspended in 10 ml HBSS, combined to make a total of 45 ml HBSS, and centrifuged at 265×g for 10 minutes at 15° C. The cell pellets were suspended in 10 ml of X-Vivo tissue culture medium (Bio Whittaker) and counted using a hemocytometer. Tissue culture medium was then added to achieve a final cell concentration of 1× 10^6 cells/ml. Additional dilutions were carried out as required for each assay.
Assays were carried out in 96 well sterile tissue culture plates (Costar 3790 and Costar 3595). A volume of 150 μl of X-Vivo medium or sterile distilled water was added to the outer wells of the plate to prevent evaporation of medium within the experimental wells. PBL's from 2 different donors were used in parallel in all experiments. A volume of 100 μl PBL suspension was added to each well using a multichannel pipette. Plates were incubated in an atmosphere of 93% air/7% CO2 in a tissue culture incubator at 37° C. X-35 (AMAC #0178), an anti CD-3 surface antigen antibody, was used at 5 ng/ml to stimulate PBL proliferation.
Tripterinin or tripterifordin was dissolved in ethanol (10 mg/ml) and then diluted in sterile X-Vivo tissue culture medium to obtain the final concentrations required for each experiment.
Four hours prior to the conclusion of incubation, 50 μl of X-Vivo tissue culture medium containing 8 μCi/ml [^3 H]Thymidine (Amersham, 49 Ci/mmol) was added to each tissue culture well. After 72 hours total incubation time, the cells were removed from the tissue culture wells and applied to filter paper using a cell harvester (Brandel Model MB-24). The filter paper was dried for one hour under a heat lamp and then cut into 1 cm discs. Each sample was placed in a scintillation vial containing 2 ml of scintillation fluid (Biosafe, Research Products International Corp.). Samples were counted in a Beckman LS 6000SC scintillation counter.

IL2 = test: IL-2 production by PHA stimulated human PBLs (ELISA); type: cell-based; details: 24 h
Procedure: The effect of tripterinin on the production of the cytokines IL-1b, IL2, IL-6, IFNγ, and TNFα was assessed by measurement of the concentration of these cytokines in PHA stimulated human PBL cultures. Cytokine levels were measured by standard ELISA methods using commercially available kits, as detailed in Example 6. Briefly, assay buffer was added to each of the wells of a microtiter plate containing pre-bound anti-cytokine antibody, followed by addition of standard or sample solution, diluted appropriately for the cytokine concentration measured, followed by a second reporter-labeled antibody specific against the anti-cytokine antibody. […]
Cytokine measurements were carried out using commercially available ELISA assay kits (R&D Systems), in accordance with the supplier's protocols. In brief, 100 μl of the assay buffer supplied was added to each of the wells of a microtiter plate containing pre-bound anti-cytokine antibody, followed by 100 μl of standard or sample solution, diluted appropriately for the concentration range measured. […]
Following two hours incubation, the plates were washed four times with assay buffer, and the second antibody, anti-anti-cytokine-horseradish peroxidase (HRP), was added to each well in a volume of 200 μl. […] Optical density was determined using a Molecular Devices microtiter plate reader.

Structure (SMILES): C[C@]12CCC[C@]3(COC1=O)[C@@H]2CC[C@@]12C[C@@H](CC[C@]13O)[C@](C)(O)C2 [tripterinin]
- inhibition of PBL proliferation ([1]; 0.78 μg/ml tripterinin, unstimulated and anti-CD3 stimulated PBLs): substantially complete inhibition
- Half maximal inhibition of PBL proliferation ([1]; FIG. 8, 72 h): approximately 0.5 μg/ml
- inhibitory effect on PBL proliferation ([1]; stimulated and unstimulated (tripterinin), FIG. 9 (tripterifordin)): inhibited PBL proliferation
- inhibition of PBL proliferation, dose dependence ([1]; unstimulated and anti-CD3 stimulated PBLs): dose dependent inhibition
- decrease in IL2 production (IL2; 0.7 μg/ml tripterinin): 96%
- decrease in IL2 production (IL2; 3.13 μg/ml tripterinin): 96%
